Experimental data taken from paper PMC7933434, “Entropy-driven binding of gut bacterial β-glucuronidase inhibitors ameliorates irinotecan-induced toxicity” (Communications Biology, 2021).
Values joined by “and” are separate entries in the source; they are usually repeats but may differ in a detail not shown here. Identical values can stand only once. Like-named read-outs stand apart in the source and are kept apart here.

Assays:
[1] = molecular target: EcGUS (Escherichia coli GUS) (Escherichia coli, UniProt P05804); assay: biochemical
EcGUS (Escherichia coli GUS), sequence (P05804 whole entry): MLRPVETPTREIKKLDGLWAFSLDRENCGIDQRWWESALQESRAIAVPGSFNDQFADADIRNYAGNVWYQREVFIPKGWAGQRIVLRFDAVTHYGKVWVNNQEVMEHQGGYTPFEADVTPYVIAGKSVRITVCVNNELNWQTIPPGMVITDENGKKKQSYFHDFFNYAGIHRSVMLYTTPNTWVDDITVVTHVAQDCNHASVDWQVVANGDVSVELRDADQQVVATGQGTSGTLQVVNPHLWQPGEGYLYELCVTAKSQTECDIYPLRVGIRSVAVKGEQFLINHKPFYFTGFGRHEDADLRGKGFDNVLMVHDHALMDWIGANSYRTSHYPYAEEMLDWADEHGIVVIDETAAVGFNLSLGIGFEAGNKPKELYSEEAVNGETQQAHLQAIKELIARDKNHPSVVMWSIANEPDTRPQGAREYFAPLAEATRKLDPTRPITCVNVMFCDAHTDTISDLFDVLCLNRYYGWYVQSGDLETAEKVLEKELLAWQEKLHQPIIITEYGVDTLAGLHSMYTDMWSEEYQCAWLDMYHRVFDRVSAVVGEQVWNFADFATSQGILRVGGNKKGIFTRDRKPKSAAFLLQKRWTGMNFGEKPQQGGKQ

[2] = molecular target: LgGUS (Lactobacillus gasseri GUS) (Lactobacillus gasseri, UniProt Q9AHJ8); assay: GUS inhibition assay, hydrolysis of 4-methylumbelliferyl-β-glucuronide, LgGUS; format: biochemical; details: LgGUS; 50 mM sodium acetate pH 4.5, 37 °C
LgGUS (Lactobacillus gasseri GUS), sequence (Q9AHJ8 1-598): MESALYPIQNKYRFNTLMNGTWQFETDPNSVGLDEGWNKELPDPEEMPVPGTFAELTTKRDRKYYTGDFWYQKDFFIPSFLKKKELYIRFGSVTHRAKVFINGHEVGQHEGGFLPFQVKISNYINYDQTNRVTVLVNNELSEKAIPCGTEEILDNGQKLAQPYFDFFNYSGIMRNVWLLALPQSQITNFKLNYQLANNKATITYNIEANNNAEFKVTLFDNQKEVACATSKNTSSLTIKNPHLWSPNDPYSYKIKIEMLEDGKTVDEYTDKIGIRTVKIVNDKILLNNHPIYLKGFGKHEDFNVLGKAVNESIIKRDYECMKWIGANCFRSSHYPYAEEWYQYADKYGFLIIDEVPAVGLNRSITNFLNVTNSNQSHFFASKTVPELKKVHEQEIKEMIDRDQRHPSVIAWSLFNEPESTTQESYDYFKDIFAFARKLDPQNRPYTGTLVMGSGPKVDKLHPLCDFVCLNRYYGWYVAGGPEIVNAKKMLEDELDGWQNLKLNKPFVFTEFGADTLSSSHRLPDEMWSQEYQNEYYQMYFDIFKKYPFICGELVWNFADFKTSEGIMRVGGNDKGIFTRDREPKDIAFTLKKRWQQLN

HsGUS (human GUS) = molecular target: T1, HsGUS (human GUS) (Homo sapiens, UniProt P08236); assay: GUS inhibition assay, hydrolysis of 4-methylumbelliferyl-β-glucuronide, HsGUS; format: biochemical; design: GUS activity (hydrolysis rate of MUG): unit not given here; details: for Ki: HsGUS
T1 construct: HsGUS was prepared as described[37]; made in house
T1 sequence (P08236 23-651): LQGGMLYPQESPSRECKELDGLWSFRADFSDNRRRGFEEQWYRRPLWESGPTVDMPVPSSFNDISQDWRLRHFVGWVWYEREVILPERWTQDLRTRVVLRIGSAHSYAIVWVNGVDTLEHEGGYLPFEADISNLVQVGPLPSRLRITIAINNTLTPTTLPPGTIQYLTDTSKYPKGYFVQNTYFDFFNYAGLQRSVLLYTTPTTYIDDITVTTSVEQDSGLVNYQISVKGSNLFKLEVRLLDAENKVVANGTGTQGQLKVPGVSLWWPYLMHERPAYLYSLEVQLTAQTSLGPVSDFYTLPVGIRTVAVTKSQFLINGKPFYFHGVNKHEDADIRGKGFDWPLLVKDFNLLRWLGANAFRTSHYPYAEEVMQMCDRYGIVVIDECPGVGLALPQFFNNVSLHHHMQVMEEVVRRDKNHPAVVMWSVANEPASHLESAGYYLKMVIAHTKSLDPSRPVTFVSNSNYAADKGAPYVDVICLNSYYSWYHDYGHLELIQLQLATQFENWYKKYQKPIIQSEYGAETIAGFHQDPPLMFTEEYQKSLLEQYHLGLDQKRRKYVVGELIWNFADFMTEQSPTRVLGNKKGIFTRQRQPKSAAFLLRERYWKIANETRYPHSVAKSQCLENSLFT

O=C(O)[C@H]1CNC[C@@H](O)[C@@H]1O [Inhibitor 1, Uronic isofagomine]
Ki [1]: 0.016 µM
Ki ([1]; 50 mM HEPES pH 7.5, 37 °C): 0.016 ± 0.002 µM
Ki ([1]; source data of Table 1, from plot of apparent Km against [inhibitor] (μM)): 0.0155 µM
Ki [2]: 110 ± 33 nM
Ki (HsGUS (human GUS)): 180 nM
Ki (HsGUS (human GUS); 50 mM sodium acetate pH 4.5, 37 °C): 180 ± 2 nM
GUS activity (hydrolysis rate of MUG) (HsGUS (human GUS); [Inhibitor 1] =6.25 nM, [MUG] 0.1 mM): 1052.77 and 919.367
GUS activity (hydrolysis rate of MUG) (HsGUS (human GUS); [Inhibitor 1] =6.25 nM, [MUG] 0.2 mM): 1682.62 and 1656.5
GUS activity (hydrolysis rate of MUG) (HsGUS (human GUS); [Inhibitor 1] =6.25 nM, [MUG] 0.4 mM): 2736.45 and 2863.61
GUS activity (hydrolysis rate of MUG) (HsGUS (human GUS); [Inhibitor 1] =6.25 nM, [MUG] 0.6 mM): 3626.7 and 3614.16
GUS activity (hydrolysis rate of MUG) (HsGUS (human GUS); [Inhibitor 1] =6.25 nM, [MUG] 0.8 mM): 4294.49 and 4051.74
GUS activity (hydrolysis rate of MUG) (HsGUS (human GUS); [Inhibitor 1] =6.25 nM, [MUG] 1.2 mM): 5041.75 and 5285.84
GUS activity (hydrolysis rate of MUG) (HsGUS (human GUS); [Inhibitor 1] =6.25 nM, [MUG] 1.6 mM): 5716.1 and 5569.72
GUS activity (hydrolysis rate of MUG) (HsGUS (human GUS); [Inhibitor 1] =6.25 nM, [MUG] 2 mM): 6253.7 and 6084.56
GUS activity (hydrolysis rate of MUG) (HsGUS (human GUS); [Inhibitor 1] =12.5 nM, [MUG] 0.1 mM): 964.973 and 946.536
GUS activity (hydrolysis rate of MUG) (HsGUS (human GUS); [Inhibitor 1] =12.5 nM, [MUG] 0.2 mM): 1634.13 and 1650.2
GUS activity (hydrolysis rate of MUG) (HsGUS (human GUS); [Inhibitor 1] =12.5 nM, [MUG] 0.4 mM): 2735.98 and 2661.78
GUS activity (hydrolysis rate of MUG) (HsGUS (human GUS); [Inhibitor 1] =12.5 nM, [MUG] 0.6 mM): 3585.06 and 3536.5
GUS activity (hydrolysis rate of MUG) (HsGUS (human GUS); [Inhibitor 1] =12.5 nM, [MUG] 0.8 mM): 4058.66 and 4004.34
GUS activity (hydrolysis rate of MUG) (HsGUS (human GUS); [Inhibitor 1] =12.5 nM, [MUG] 1.2 mM): 4753.61 and 4787.97
GUS activity (hydrolysis rate of MUG) (HsGUS (human GUS); [Inhibitor 1] =12.5 nM, [MUG] 1.6 mM): 5496.19 and 5468.5
GUS activity (hydrolysis rate of MUG) (HsGUS (human GUS); [Inhibitor 1] =12.5 nM, [MUG] 2 mM): 6215.35 and 6326.21
GUS activity (hydrolysis rate of MUG) (HsGUS (human GUS); [Inhibitor 1] =25 nM, [MUG] 0.1 mM): 888.487 and 880.944
GUS activity (hydrolysis rate of MUG) (HsGUS (human GUS); [Inhibitor 1] =25 nM, [MUG] 0.2 mM): 1602.44 and 1479.41
GUS activity (hydrolysis rate of MUG) (HsGUS (human GUS); [Inhibitor 1] =25 nM, [MUG] 0.4 mM): 2621.31 and 2595.47
GUS activity (hydrolysis rate of MUG) (HsGUS (human GUS); [Inhibitor 1] =25 nM, [MUG] 0.6 mM): 3374.76 and 3226.51
GUS activity (hydrolysis rate of MUG) (HsGUS (human GUS); [Inhibitor 1] =25 nM, [MUG] 0.8 mM): 3934.08 and 3700.76
GUS activity (hydrolysis rate of MUG) (HsGUS (human GUS); [Inhibitor 1] =25 nM, [MUG] 1.2 mM): 4557.18 and 4846.86
GUS activity (hydrolysis rate of MUG) (HsGUS (human GUS); [Inhibitor 1] =25 nM, [MUG] 1.6 mM): 5394.55 and 5298.67
GUS activity (hydrolysis rate of MUG) (HsGUS (human GUS); [Inhibitor 1] =25 nM, [MUG] 2 mM): 6010.34 and 6068.98
GUS activity (hydrolysis rate of MUG) (HsGUS (human GUS); [Inhibitor 1] =50 nM, [MUG] 0.1 mM): 874.409 and 866.834
GUS activity (hydrolysis rate of MUG) (HsGUS (human GUS); [Inhibitor 1] =50 nM, [MUG] 0.2 mM): 1446.88 and 1448.8
GUS activity (hydrolysis rate of MUG) (HsGUS (human GUS); [Inhibitor 1] =50 nM, [MUG] 0.4 mM): 2554.3 and 2362.71
GUS activity (hydrolysis rate of MUG) (HsGUS (human GUS); [Inhibitor 1] =50 nM, [MUG] 0.6 mM): 3157.04 and 3034.34
GUS activity (hydrolysis rate of MUG) (HsGUS (human GUS); [Inhibitor 1] =50 nM, [MUG] 0.8 mM): 3775.39 and 3558.36
GUS activity (hydrolysis rate of MUG) (HsGUS (human GUS); [Inhibitor 1] =50 nM, [MUG] 1.2 mM): 4410.62 and 4573.1
GUS activity (hydrolysis rate of MUG) (HsGUS (human GUS); [Inhibitor 1] =50 nM, [MUG] 1.6 mM): 4956.91 and 5204.72
GUS activity (hydrolysis rate of MUG) (HsGUS (human GUS); [Inhibitor 1] =50 nM, [MUG] 2 mM): 5814.43 and 5846.27
GUS activity (hydrolysis rate of MUG) (HsGUS (human GUS); [Inhibitor 1] =100 nM, [MUG] 0.1 mM): 714.467 and 698.837
GUS activity (hydrolysis rate of MUG) (HsGUS (human GUS); [Inhibitor 1] =100 nM, [MUG] 0.2 mM): 1267.32 and 1255.83
GUS activity (hydrolysis rate of MUG) (HsGUS (human GUS); [Inhibitor 1] =100 nM, [MUG] 0.4 mM): 2205.11 and 2224.51
GUS activity (hydrolysis rate of MUG) (HsGUS (human GUS); [Inhibitor 1] =100 nM, [MUG] 0.6 mM): 2972.37 and 2813
GUS activity (hydrolysis rate of MUG) (HsGUS (human GUS); [Inhibitor 1] =100 nM, [MUG] 0.8 mM): 3383.16 and 3413.02
GUS activity (hydrolysis rate of MUG) (HsGUS (human GUS); [Inhibitor 1] =100 nM, [MUG] 1.2 mM): 4189.2 and 4174.02
GUS activity (hydrolysis rate of MUG) (HsGUS (human GUS); [Inhibitor 1] =100 nM, [MUG] 1.6 mM): 4730.59 and 4939.86
GUS activity (hydrolysis rate of MUG) (HsGUS (human GUS); [Inhibitor 1] =100 nM, [MUG] 2 mM): 5626.48 and 5332.35
GUS activity (hydrolysis rate of MUG) (HsGUS (human GUS); [Inhibitor 1] =200 nM, [MUG] 0.1 mM): 493.269 and 528.779
